Assay results published in ChEMBL document CHEMBL6092217 (Eur J Med Chem, 2024).

How the values were obtained:
[1] = Resistance index, ratio of IC50 for human A549/TxR cells to IC50 for human A549 cells; type: functional
Tubulin (Homo sapiens) = Tubulin (Homo sapiens) (UniProt P68371+Q9H4B7+P0DPH7+P68366+Q13509+Q71U36+P04350+Q3ZCM7+P07437+P68363+Q9BQE3+Q6PEY2+Q13885+Q9BVA1+Q9BUF5); assay: Disruption of microtubule network in human HT-29 cells incubated for 8 hrs by DAPI staining based confocal microscopic analysis; type: cell-based; conditions: dose 50-200 nM
HT-29 [2] = assay: Induction of cell cycle arrest in human HT-29 cells assessed as accumulation of cells at S phase at 100 nM incubated for 24 hrs by flow cytometry analysis (reference value: 20.8 %); type: functional
HT-29 [3] = assay: Induction of apoptosis in human HT-29 cells assessed as viable cells at 50 nM incubated for 24 hrs by FITC/PI staining based flow cytometry analysis (reference value: 91.6%); type: functional; conditions: read-out: Activity
[4] = Toxicity in BALB/c mouse assessed as heart damage at 10 to 40 mg/kg, iv measured after 21 days by H and E staining based analysis; type: organism-based; conditions: in vivo, 504 h, dose 10-40 mg/kg, time 21 day

Activity (Tubulin (Homo sapiens)): Dose-dependent-effect
SMILES: COc1ccc(N(C)c2nc(/C=C/c3cccc(OC)c3)nc3ccccc23)cc1
Ratio IC50 [1]: 2.53 | Activity (HT-29 [2]): 24.9% | viability at 0.05 µM (HT-29 [3]): 72% | Activity [4]: Non-toxic
